In this assay the target is T1, Human CYP8B1 (Homo sapiens, UniProt Q9UNU6).
T1 sequence (Q9UNU6 1-501): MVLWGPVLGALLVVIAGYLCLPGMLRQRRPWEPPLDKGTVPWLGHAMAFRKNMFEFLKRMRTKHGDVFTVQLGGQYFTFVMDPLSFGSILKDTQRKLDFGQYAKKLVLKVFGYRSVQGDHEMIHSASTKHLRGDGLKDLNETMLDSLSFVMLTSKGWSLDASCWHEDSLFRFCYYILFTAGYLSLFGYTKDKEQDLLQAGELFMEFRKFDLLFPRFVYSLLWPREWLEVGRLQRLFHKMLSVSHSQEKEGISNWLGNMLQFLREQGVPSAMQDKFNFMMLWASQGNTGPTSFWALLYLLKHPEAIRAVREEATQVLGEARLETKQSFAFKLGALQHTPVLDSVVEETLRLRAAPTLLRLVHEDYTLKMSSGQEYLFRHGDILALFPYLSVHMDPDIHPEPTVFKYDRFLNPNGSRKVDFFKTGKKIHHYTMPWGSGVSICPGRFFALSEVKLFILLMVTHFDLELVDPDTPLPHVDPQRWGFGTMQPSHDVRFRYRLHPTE
Briefly: Human CYP8B1 Liver Microsome Assay. The note with it: Human CYP8B1 IC50, human liver microsomes; substrate 7a-hydroxy-4-cholesten-3-one, NADPH; RapidFire MS detection of 7α,12α-dihydroxy-4-cholesten-3-one. For orientation: Liver microsomes are a subcellular fraction often used to study metabolism.
Method: To a 384 well polypropylene plate (Corning 3656), 250 nl of inhibitor in 100% DMSO (1.25% final DMSO concentration) was pre-plated using an Echo liquid handler (Labcyte Inc.). Human liver microsomes (Xenotech) were diluted in of 0.1 M phosphate buffer, pH 7.4, at a concentration of 65 μg/ml and 15 μL was added to the 384 well plate. The plates were incubated at ambient room temperature for 30 minutes. After pre-incubation with inhibitor, the reaction was initiated by adding 5 μl of substrate solution (4.0 μM 7a-hydroxy-4-cholesten-3-one (Toronto Research Chemicals), 2 mM of NADPH (Sigma), 0.1 M phosphate buffer (pH 7.4). The reaction was carried out for 45 minutes at ambient room temperature and was quenched by the addition of 50 μl of acetonitrile+0.1% vol/vol formic acid (FA)+300 nM 7α-hydroxy-4-cholesten-3-one-d7 (Toronto Research Chemicals). The plates were sealed and centrifuged at 3000 rpm for 5 minutes. Plates were loaded onto the Agilent RapidFire RF300 HTMS system, wherein samples were sipped for 600 ms, and the sip sensor detection signals the diversion of sample from the loop onto a C4 solid phase extraction (SPE) cartridge, where salts are washed off for 2500 ms with a mobile phase of water with 0.1% vol/vol FA at a flow rate of 1.5 ml/min. The column path was switched, and the sample was eluted off the cartridge and flowed into the mass spectrometer for 3000 ms with a mobile phase of acetonitrile and 0.1% vol/vol FA at a flow rate of 1.25 ml/min. The aspirator tip was washed separately with water and acetonitrile between sample aspirations (each for 600 ms) to minimize carryover contamination. Mass spectrometry was carried out using a Sciex API4000 triple quadrupole mass spectrometer (Applied Biosystems, Concord, ON, Canada) equipped with electrospray ionization (ESI) operated in the positive-ion mode. The product 7α,12α-dihydroxy-4-cholesten-3-one and internal standard 7α-hydroxy-4-cholsten-3-one-d7 were detected using multiple reaction monitoring (MRM) with Q1/Q3 transitions at m/z 417.3 to 381.3 and m/z 408.3 to 390.3, respectively, with a dwell time of 100 ms and a collision energy of 24 V for each transition. The mass spectrometer used an ESI voltage of 5000 V and a source temperature of 650° C. Extracted ion chromatograms for each transition were integrated and processed using the RapidFire Integrator software. The data for each well were normalized by monitoring product conversion with the ratio of AUCproduct/(AUCinternal standard). The data was then fitted to a four parameter logistic fit using ActivityBase Software to calculate an IC50 of the inhibitor.
Compound `Cc1nc2ccc(Cl)cc2c(N2CC[C@H](C(=O)N3CCc4oncc4C3)[C@H](C)C2)c1C#N` [Example 97, 6-chloro-4-[(3S,4S)-4-(6,7-dihydroisoxazolo[4,5-c]pyridin-5(4H)-ylcarbonyl)-3-methylpiperidin-1-yl]-2-methylquinoline-3-carbonitrile] had an IC50 of 4.2 nM.
The compound `Cc1nc2ccc(Cl)cc2c(N2CC[C@H](C(=O)N3CCc4sc(C(F)(F)F)nc4C3)[C@H](C)C2)c1C#N` [Example 98, 6-chloro-2-methyl-4-[(3S,4S)-3-methyl-4-{[2-(trifluoromethyl)-6,7-dihydro[1,3]thiazolo[4,5-c]pyridin-5(4H)-yl]carbonyl}piperidin-1-yl]quinoline-3-carbonitrile] had an IC50 of 19 nM.
The figure for `Cc1nc2ccc(Cl)cc2c(N2CC[C@H](C(=O)N3CCn4cc(C(F)(F)F)nc4C3)[C@H](C)C2)c1C#N` [Example 99, 6-chloro-2-methyl-4-[(3S,4S)-3-methyl-4-{[2-(trifluoromethyl)-5,6-dihydroimidazo[1,2-a]pyrazin-7(8H)-yl]carbonyl}piperidin-1-yl]quinoline-3-carbonitrile] is 52 nM; for `C[C@@H]1CN(c2c(C#N)cnc3cc(OCC4CC4)ccc23)CC[C@@H]1C(=O)N1CCn2c(nnc2C(F)(F)F)C1` [Example 100, 7-(cyclopropylmethoxy)-4-[(3S,4S)-3-methyl-4-{[3-(trifluoromethyl)-5,6-dihydro[1,2,4]triazolo[4,3-a]pyrazin-7(8H)-yl]carbonyl}piperidin-1-yl]quinoline-3-carbonitrile] it is 0.35 nM; for `CC(C)COc1ccc2c(N3CC[C@H](C(=O)N4CCn5c(nnc5C(F)(F)F)C4)[C@H](C)C3)c(C#N)cnc2c1` [Example 101, 7-(2-methylpropoxy)-4-[(3S,4S)-3-methyl-4-{[3-(trifluoromethyl)-5,6-dihydro[1,2,4]triazolo[4,3-a]pyrazin-7(8H)-yl]carbonyl}piperidin-1-yl]quinoline-3-carbonitrile] it is 0.33 nM.
`C[C@@H]1CN(c2c(C#N)cnc3cc(OCC(F)F)ccc23)CC[C@@H]1C(=O)N1CCn2c(nnc2C(F)(F)F)C1` [Example 102, 7-(2,2-difluoroethoxy)-4-[(3S,4S)-3-methyl-4-{[3-(trifluoromethyl)-5,6-dihydro[1,2,4]triazolo[4,3-a]pyrazin-7(8H)-yl]carbonyl}piperidin-1-yl]quinoline-3-carbonitrile] displayed an IC50 of 0.33 nM.
In turn, `N#Cc1cnc2ccc(Cl)cc2c1N1CCC(C(=O)N2CCn3c(nnc3C(F)(F)F)C2)CC1` [Example 103, 6-chloro-4-(4-(3-(trifluoromethyl)-5,6,7,8-tetrahydro-[1,2,4]triazolo[4,3-a]pyrazine-7-carbonyl)piperidin-1-yl)quinoline-3-carbonitrile] showed a half-maximal inhibitory concentration (IC50) of 23.2 nM.
With `N#Cc1cnc2ccc(Cl)cc2c1N1CCC(C(=O)N2CCn3cc(C(F)(F)F)nc3C2)CC1` [Example 104, 6-chloro-4-(4-{[2-(trifluoromethyl)-5,6-dihydroimidazo[1,2-a]pyrazin-7(8H)-yl]carbonyl}piperidin-1-yl)quinoline-3-carbonitrile] the figure was 863 nM; with `N#Cc1cnc2ccc(Cl)cc2c1N1CCC(C(=O)N2CCn3cncc3C2)CC1` [Example 105, 6-chloro-4-[4-(5,6-dihydroimidazo[1,5-a]pyrazin-7(8H)-ylcarbonyl)piperidin-1-yl]quinoline-3-carbonitrile], 878 nM.
`CCc1nnc2n1CCN(C(=O)C1CCN(c3c(C#N)cnc4ccc(Cl)cc34)CC1)C2` [Example 106, 6-chloro-4-{4-[(3-ethyl-5,6-dihydro[1,2,4]triazolo[4,3-a]pyrazin-7(8H)-yl)carbonyl]piperidin-1-yl}quinoline-3-carbonitrile] returned an IC50 of 8.1 nM.
`N#Cc1cnc2ccc(Cl)cc2c1N1CCC(C(=O)N2CCc3c(C4CC4)n[nH]c3C2)CC1` [Example 107, 6-chloro-4-{4-[(3-cyclopropyl-1,4,5,7-tetrahydro-6H-pyrazolo[3,4-c]pyridin-6-yl)carbonyl]piperidin-1-yl}quinoline-3-carbonitrile] returned a half-maximal inhibitory concentration (IC50) of 5.6 nM.
In the case of `N#Cc1cnc2ccc(Cl)cc2c1N1CCC(C(=O)N2CCc3cn[nH]c3C2)CC1` [Example 108, 6-chloro-4-[4-(1,4,5,7-tetrahydro-6H-pyrazolo[3,4-c]pyridin-6-ylcarbonyl)piperidin-1-yl]quinoline-3-carbonitrile], 142 nM corresponded to half-maximal inhibition (IC50).
With `CC1(C)CN(C(=O)C2CCN(c3c(C#N)cnc4ccc(Cl)cc34)CC2)Cc2nnc(C(F)(F)F)n21` [Example 109, 6-chloro-4-(4-{[5,5-dimethyl-3-(trifluoromethyl)-5,6-dihydro[1,2,4]triazolo[4,3-a]pyrazin-7(8H)-yl]carbonyl}piperidin-1-yl)quinoline-3-carbonitrile] the figure was 375 nM.
The compound `N#Cc1cnc2ccc(Cl)cc2c1N1CCC(C(=O)N2CCn3cnnc3C2)CC1` [Example 110, 6-chloro-4-[4-(5,6-dihydro[1,2,4]triazolo[4,3-a]pyrazin-7(8H)-ylcarbonyl)piperidin-1-yl]quinoline-3-carbonitrile] yielded a half-inhibitory concentration (IC50) of 181 nM.
With `N#Cc1cnc2ccc(Cl)cc2c1N1CCC(C(=O)N2CCc3c(C(F)(F)F)n[nH]c3C2)CC1` [Example 111, 6-chloro-4-(4-{[3-(trfluoromethyl)-1,4,5,7-tetrahydro-6H-pyrazolo[3,4-c]pyridin-6-yl]carbonyl}piperidin-1-yl)quinoline-3-carbonitrile], it took 90 nM to reach half-maximal inhibition (IC50).
Take `CC1CN(C(=O)C2CCN(c3c(C#N)cnc4ccc(Cl)cc34)CC2)Cc2nnc(C(F)(F)F)n21` (stereo not shown) [Example 112, 6-chloro-4-(4-{[5-methyl-3-(trifluoromethyl)-5,6-dihydro[1,2,4]triazolo[4,3-a]pyrazin-7(8H)-yl]carbonyl}piperidin-1-yl)quinoline-3-carbonitrile]: half-maximal inhibition (IC50) required 69.7 nM.
On to `Cn1nc(C(F)(F)F)c2c1CN(C(=O)C1CCN(c3c(C#N)cnc4ccc(Cl)cc34)CC1)CC2` [Example 113, 6-chloro-4-(4-{[1-methyl-3-(trifluoromethyl)-1,4,5,7-tetrahydro-6H-pyrazolo[3,4-c]pyridin-6-yl]carbonyl}piperidin-1-yl)quinoline-3-carbonitrile], for which the half-maximal inhibitory concentration (IC50) was 16.1 nM.
Consider `CCc1ncc2n1CCN(C(=O)C1CCN(c3c(C#N)cnc4ccc(Cl)cc34)CC1)C2` [Example 114, 6-chloro-4-{4-[(3-ethyl-5,6-dihydroimidazo[1,5-a]pyrazin-7(8H)-yl)carbonyl]piperidin-1-yl}quinoline-3-carbonitrile], for which 1220 nM corresponded to half-maximal inhibition (IC50).
`CC(C)c1ncc2n1CCN(C(=O)C1CCN(c3c(C#N)cnc4ccc(Cl)cc34)CC1)C2` [Example 115, 6-chloro-4-(4-{[3-(propan-2-yl)-5,6-dihydroimidazo[1,5-a]pyrazin-7(8H)-yl]carbonyl}piperidin-1-yl)quinoline-3-carbonitrile]: the IC50 worked out at 1670 nM.
In the case of `CC1CN(c2c(C#N)cnc3ccc(Cl)cc23)CCC1C(=O)N1CCn2c(nnc2C(F)(F)F)C1` (stereo not shown) [Example 116, 6-chloro-4-(3-methyl-4-(3-(trifluoromethyl)-5,6,7,8-tetrahydro-[1,2,4]triazolo[4,3-a]pyrazine-7-carbonyl)piperidin-1-yl)quinoline-3-carbonitrile], the IC50 was 1.4 nM.
The compound `CC1CN(c2c(C#N)cnc3ccc(F)cc23)CCC1C(=O)N1CCn2c(nnc2C(F)(F)F)C1` (stereo not shown) [Example 117, 6-fluoro-4-(3-methyl-4-{[3-(trifluoromethyl)-5,6-dihydro[1,2,4]triazolo[4,3-a]pyrazin-7(8H)-yl]carbonyl}piperidin-1-yl)quinoline-3-carbonitrile] registered a half-maximal inhibitory concentration (IC50) of 1.2 nM.
`N#Cc1cnc2ccc(Cl)cc2c1N1CCC(C(=O)N2CCn3c(nnc3C(F)(F)F)C2)C(C(F)(F)F)C1` (stereo not shown) [Example 118, 6-chloro-4-[3-(trifluoromethyl)-4-{[3-(trifluoromethyl)-5,6-dihydro[1,2,4]triazolo[4,3-a]pyrazin-7(8H)-yl]carbonyl}piperidin-1-yl]quinoline-3-carbonitrile]: it took 2.1 nM to reach half-maximal inhibition (IC50).
Compound `CC1CN(c2c(C#N)cnc3ccc(C(F)(F)F)cc23)CCC1C(=O)N1CCn2c(nnc2C(F)(F)F)C1` (stereo not shown) [Example 119, 4-(3-methyl-4-{[3-(trifluoromethyl)-5,6-dihydro[1,2,4]triazolo[4,3-a]pyrazin-7(8H)-yl]carbonyl}piperidin-1-yl)-6-(trifluoromethyl)quinoline-3-carbonitrile] registered a 50% inhibitory concentration (IC50) of 1.2 nM.
With `N#Cc1cnc2ccc(Cl)cc2c1N1CCC(F)(C(=O)N2CCn3c(nnc3C(F)(F)F)C2)CC1` [Example 120, 6-chloro-4-(4-fluoro-4-{[3-(trifluoromethyl)-5,6-dihydro[1,2,4]triazolo[4,3-a]pyrazin-7(8H)-yl]carbonyl}piperidin-1-yl)quinoline-3-carbonitrile], the IC50 was 169 nM.
With `CC1(C(=O)N2CCn3c(nnc3C(F)(F)F)C2)CCN(c2c(C#N)cnc3ccc(Cl)cc23)CC1` [Example 121, 6-chloro-4-(4-methyl-4-{[3-(trifluoromethyl)-5,6-dihydro[1,2,4]triazolo[4,3-a]pyrazin-7(8H)-yl]carbonyl}piperidin-1-yl)quinoline-3-carbonitrile] the figure was 14 nM.

The IC50 is the concentration needed to halve the response being measured. Read a high IC50 as weaker potency.
